Test results taken from ChEMBL document CHEMBL1201862, “PubChem BioAssay data set” (2004).
Where “and” joins values, the source holds several entries; their conditions need not be identical. Equal values may be shown once. Calls of active or inactive are those of the source.

Assays:
Cytochrome P450 1A2 = target: T1, Cytochrome P450 1A2 (Homo sapiens, UniProt P05177);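 further: PubChem cytochrome P450 panel assay, CYP1A2 panel member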
T1 sequence (P05177 whole entry): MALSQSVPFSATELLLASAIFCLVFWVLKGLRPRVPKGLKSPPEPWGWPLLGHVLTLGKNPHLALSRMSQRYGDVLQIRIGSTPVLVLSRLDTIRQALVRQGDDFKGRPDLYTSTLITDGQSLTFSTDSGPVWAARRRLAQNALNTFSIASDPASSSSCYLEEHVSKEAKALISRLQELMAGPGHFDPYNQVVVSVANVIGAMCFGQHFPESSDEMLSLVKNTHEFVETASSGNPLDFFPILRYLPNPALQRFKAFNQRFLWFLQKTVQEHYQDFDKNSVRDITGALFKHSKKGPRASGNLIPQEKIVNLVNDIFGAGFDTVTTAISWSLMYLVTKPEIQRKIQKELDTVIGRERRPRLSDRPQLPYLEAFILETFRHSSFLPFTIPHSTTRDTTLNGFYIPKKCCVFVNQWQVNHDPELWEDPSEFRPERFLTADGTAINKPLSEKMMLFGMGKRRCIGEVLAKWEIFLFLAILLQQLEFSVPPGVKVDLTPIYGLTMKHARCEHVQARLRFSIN

Cytochrome P450 2C9 = Cytochrome P450 2C9 (Homo sapiens, UniProt P11712)
Sequence of Cytochrome P450 2C9 (P11712 whole entry): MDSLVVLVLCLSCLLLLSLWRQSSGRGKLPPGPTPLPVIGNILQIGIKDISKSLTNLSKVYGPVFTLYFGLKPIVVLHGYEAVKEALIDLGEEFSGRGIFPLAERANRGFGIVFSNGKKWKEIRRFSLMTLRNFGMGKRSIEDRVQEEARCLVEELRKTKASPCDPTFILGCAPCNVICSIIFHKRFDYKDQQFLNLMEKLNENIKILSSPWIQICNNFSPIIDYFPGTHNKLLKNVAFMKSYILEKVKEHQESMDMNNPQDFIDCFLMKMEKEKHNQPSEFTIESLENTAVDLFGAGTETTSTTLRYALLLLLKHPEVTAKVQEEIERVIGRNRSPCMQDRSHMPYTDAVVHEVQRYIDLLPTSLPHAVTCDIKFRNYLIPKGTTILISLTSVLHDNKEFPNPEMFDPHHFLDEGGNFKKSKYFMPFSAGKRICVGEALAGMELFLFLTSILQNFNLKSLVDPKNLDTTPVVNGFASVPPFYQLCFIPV

[1] = target: T2, Calpain-2 catalytic subunit (Sus scrofa, UniProt P43367); assay: pig calpain II inhibitor potency, dose response, biochemical, fluorogenic peptide substrate (AID 1420); assay type: functional
T2 sequence (P43367 whole entry): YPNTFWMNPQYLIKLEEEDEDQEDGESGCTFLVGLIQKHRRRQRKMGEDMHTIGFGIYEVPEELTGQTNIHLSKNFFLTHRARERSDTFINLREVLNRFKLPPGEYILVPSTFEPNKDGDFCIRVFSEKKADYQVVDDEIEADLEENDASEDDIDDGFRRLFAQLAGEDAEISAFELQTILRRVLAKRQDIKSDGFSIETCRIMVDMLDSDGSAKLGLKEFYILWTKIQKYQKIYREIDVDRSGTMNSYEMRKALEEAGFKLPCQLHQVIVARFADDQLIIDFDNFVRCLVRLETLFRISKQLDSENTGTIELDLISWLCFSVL

[2] = HEK293 cell cytotoxicity, dose response, cytotoxicity control, plate reader, cherry-picked samples (AID 743446); assay type: functional, cell-based
[3] = HepG2 cell cytotoxicity, dose response, cytotoxicity control, plate reader, cherry-pick, antagonist series (AID 743416); assay type: functional, cell-based
INS1 = assay: beta cell apoptosis inhibitors, cytokine rescue, dose response, luminescence, retest (AID 449756); assay type: functional, cell-based; details: Rattus norvegicus;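 further: cell death triggered by IL-1 beta plus TNF-alpha plus IFN-gamma mixture; protective hits raise ATP signal compared with cytokine alone wells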
[4] = A549 cell cytotoxicity, dose response, cytotoxicity control, plate reader, cherry-pick, antagonist series (AID 743412); assay type: functional, cell-based
[5] = Vero E6 cell cytotoxicity, dose response, cytotoxicity control for non-replicating M. tuberculosis project, secondary assay (AID 492998); assay type: functional, VeroE6; details: Vero C1008
Vero = assay: cells; assay type: functional; details: Chlorocebus sabaeus
cells = assay type: functional
[6] = MC4R antagonists, dose response, counter-screen for LGR2 antagonist project, cell-based, plate reader, cherry pick (AID 743444); assay type: functional;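 further: transfected HEK 293 cells stimulated with alpha-MSH peptide; potency of inhibitors of the alpha-MSH evoked signal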
[7] = LGR2 antagonists, dose response, cell-based, HEK293, CRE-luciferase reporter, cherry pick, set 2 (AID 743343); assay type: functional;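 further: transfected cells were stimulated with diluted bursicon conditioned medium after compound addition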
[8] = THP-1 cell cytotoxicity, dose response, cytotoxicity control for non-replicating M. tuberculosis project (AID 489025); assay type: functional
Cytochrome P450 2D6 = Cytochrome P450 2D6 (Homo sapiens, UniProt P10635);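 further: CYP2D6 member of a cytochrome P450 panel assay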
Sequence of Cytochrome P450 2D6 (P10635 whole entry): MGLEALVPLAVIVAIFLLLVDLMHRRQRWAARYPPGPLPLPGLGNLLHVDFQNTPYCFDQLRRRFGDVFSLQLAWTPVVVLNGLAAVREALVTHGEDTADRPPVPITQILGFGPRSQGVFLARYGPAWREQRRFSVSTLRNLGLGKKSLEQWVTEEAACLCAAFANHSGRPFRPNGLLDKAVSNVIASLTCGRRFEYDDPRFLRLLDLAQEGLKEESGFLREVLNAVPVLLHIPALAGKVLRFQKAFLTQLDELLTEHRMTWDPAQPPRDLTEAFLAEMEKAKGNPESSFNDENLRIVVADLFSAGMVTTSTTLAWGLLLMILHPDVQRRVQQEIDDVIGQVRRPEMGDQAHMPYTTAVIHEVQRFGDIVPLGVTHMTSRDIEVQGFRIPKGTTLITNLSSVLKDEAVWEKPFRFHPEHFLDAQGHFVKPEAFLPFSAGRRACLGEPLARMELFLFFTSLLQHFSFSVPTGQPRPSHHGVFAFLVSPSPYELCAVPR

Cytochrome P450 2C19 = Cytochrome P450 2C19 (Homo sapiens, UniProt P33261); assay: Cytochrome panel assay with activity outcomes. Panel member name: p450-cyp2c19 Compounds with AC50 equal or less than 10 uM are considered active; assay type: functional
Sequence of Cytochrome P450 2C19 (P33261 whole entry): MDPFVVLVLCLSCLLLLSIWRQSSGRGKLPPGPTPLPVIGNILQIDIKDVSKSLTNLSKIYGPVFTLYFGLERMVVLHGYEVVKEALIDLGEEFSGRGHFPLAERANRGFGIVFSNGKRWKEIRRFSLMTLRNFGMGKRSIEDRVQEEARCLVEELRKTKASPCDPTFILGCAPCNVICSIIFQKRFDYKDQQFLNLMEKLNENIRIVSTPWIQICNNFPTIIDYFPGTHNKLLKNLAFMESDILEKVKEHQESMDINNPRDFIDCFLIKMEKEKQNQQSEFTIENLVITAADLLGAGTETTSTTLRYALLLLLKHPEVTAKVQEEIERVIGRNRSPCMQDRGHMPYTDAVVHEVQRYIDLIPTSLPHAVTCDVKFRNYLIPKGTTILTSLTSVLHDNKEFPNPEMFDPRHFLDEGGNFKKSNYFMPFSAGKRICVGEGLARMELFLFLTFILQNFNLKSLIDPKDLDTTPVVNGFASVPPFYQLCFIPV

Cytochrome P450 3A4 = Cytochrome P450 3A4 (Homo sapiens, UniProt P08684);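 further: CYP3A4 tested as one member of a cytochrome P450 panel screen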
Sequence of Cytochrome P450 3A4 (P08684 whole entry): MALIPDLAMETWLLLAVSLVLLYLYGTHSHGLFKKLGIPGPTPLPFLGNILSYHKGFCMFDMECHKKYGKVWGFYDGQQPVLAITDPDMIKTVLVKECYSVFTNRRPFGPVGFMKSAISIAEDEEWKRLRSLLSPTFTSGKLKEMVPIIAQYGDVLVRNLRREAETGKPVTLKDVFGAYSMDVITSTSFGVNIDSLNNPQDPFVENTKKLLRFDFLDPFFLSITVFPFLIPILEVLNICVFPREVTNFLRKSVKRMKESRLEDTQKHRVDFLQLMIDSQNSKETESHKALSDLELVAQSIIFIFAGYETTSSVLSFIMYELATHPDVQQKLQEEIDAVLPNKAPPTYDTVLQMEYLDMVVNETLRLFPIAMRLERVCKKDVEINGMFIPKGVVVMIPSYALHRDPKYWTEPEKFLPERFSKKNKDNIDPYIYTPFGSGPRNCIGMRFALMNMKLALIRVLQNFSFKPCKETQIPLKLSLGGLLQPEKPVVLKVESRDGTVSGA

[9] = target: T3, Short transient receptor potential channel 4 (Mus musculus, UniProt Q9QUQ5); assay: mouse TRPC4 channel inhibitors, dose response, cell-based, HEK293 TRPC4/mu-opioid, Fluo-4 calcium (AID 434942); assay type: functional;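 further: potency of inhibitors blocking the TRPC4 calcium response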
T3 sequence (Q9QUQ5 whole entry): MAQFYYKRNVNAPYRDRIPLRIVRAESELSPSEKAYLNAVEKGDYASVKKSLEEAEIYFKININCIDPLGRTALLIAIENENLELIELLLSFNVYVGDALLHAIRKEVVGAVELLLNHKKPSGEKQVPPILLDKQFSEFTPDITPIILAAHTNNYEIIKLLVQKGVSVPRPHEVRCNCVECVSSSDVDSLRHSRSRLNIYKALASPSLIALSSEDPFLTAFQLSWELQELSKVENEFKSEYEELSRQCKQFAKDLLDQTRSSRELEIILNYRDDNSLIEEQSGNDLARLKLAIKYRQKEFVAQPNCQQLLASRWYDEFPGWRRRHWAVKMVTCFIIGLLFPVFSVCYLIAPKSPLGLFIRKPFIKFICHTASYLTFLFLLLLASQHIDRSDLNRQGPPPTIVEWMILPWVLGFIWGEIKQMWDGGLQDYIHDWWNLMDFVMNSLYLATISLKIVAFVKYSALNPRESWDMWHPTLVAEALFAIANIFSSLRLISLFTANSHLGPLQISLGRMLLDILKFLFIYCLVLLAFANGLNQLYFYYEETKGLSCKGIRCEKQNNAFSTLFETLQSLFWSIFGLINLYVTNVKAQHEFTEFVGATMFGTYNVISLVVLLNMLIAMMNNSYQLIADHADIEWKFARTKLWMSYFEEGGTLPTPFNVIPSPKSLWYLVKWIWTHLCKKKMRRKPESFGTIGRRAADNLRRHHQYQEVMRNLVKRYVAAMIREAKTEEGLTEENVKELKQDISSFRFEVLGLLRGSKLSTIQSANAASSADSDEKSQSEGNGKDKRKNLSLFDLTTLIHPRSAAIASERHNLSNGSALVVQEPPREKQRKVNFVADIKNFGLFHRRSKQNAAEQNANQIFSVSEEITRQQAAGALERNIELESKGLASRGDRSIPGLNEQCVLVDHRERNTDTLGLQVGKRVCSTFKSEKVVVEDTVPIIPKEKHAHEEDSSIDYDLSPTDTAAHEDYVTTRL

Protein skinhead-1 = target: T4, Protein skinhead-1 (Caenorhabditis elegans, UniProt P34707); assay type: functional
T4 sequence (P34707 whole entry): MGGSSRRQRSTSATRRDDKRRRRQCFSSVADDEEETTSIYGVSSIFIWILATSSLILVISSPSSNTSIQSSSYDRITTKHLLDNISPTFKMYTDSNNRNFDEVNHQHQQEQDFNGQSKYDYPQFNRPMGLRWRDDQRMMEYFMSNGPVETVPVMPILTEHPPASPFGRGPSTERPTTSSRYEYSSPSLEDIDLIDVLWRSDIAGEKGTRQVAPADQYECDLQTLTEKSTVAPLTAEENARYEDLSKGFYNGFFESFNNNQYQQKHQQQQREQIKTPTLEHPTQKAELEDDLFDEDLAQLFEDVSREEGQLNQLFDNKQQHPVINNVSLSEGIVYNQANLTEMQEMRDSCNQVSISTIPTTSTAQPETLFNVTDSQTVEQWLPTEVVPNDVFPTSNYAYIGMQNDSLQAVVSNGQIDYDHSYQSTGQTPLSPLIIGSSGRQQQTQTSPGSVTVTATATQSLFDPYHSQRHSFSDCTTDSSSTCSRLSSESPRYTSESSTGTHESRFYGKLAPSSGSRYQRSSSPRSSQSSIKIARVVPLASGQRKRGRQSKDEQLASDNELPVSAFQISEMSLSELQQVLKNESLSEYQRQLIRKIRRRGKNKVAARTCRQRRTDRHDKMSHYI

[10] = target: T5, Polyadenylate-binding protein 1 (Homo sapiens, UniProt P11940); assay: PABP1 MLLE–PAM2 binding inhibitor potency, dose response, biochemical, fluorescence polarization, FITC-PAM2 peptide (AID 602259); assay type: functional; details: read-out: IC50_Mean
T5 sequence (P11940 whole entry): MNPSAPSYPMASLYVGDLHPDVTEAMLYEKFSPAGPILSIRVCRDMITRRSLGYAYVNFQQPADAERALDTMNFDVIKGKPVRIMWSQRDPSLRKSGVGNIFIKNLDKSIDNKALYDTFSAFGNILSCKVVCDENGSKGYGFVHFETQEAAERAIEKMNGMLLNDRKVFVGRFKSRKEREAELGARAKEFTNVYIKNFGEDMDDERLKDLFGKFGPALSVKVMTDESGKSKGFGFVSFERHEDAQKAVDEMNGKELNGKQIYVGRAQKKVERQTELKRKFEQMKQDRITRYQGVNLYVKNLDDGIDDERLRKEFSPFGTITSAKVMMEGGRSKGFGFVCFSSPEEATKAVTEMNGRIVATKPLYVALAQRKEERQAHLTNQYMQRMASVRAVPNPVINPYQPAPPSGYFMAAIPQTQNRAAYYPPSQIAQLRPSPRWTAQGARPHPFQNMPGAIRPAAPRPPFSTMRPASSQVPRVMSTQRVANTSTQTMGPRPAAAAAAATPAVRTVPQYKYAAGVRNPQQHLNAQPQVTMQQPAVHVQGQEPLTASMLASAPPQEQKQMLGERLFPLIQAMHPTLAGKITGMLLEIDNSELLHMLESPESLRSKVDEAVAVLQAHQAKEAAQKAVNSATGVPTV

[11] = target: T5, Polyadenylate-binding protein 1; assay: PABP1 MLLE–PAM2 interaction inhibitors, dose response, miRNA deadenylation inhibitor project, biochemical, fluorescence polarization, Cy5-PAM2 peptide, secondary (AID 602260); assay type: functional; details: read-out: IC50_Mean

## Cc1ccccc1C(=O)Nc1ccc(N2CCOCC2)nc1
Cytochrome P450 1A2
  AC50: 17.8 µM (inconclusive)
Cytochrome P450 2C9
  AC50: inconclusive

## CCc1ccc(CNCc2cccnc2)cc1
[1]
  IC50: 0.454 µM (not active)

## Cc1ccc2nc(NC(=O)c3ccccn3)sc2c1
[2]
  AC50: 14 µM (active)
[3]
  AC50: 9.65 µM (active)
INS1
  AC50: 2.19 µM (active)
[4]
  AC50: 4.99 µM (active)
[5]
  CC50: 7.23 µM (active)
Vero
  CC50: 11.3 µM (active)
cells
  IC50: 630 nM (active)
[6]
  AC50: 582 nM (active)
[7]
  AC50: 737 nM (active)
[8]
  CC50: 10.7 µM (active)

## Cc1cc(NC(=O)c2ccccc2Cl)c(C(C)C)cc1O
Cytochrome P450 2C9
  AC50: inconclusive

## COc1ccc(/C=N/NC(=O)C2c3ccccc3Oc3ccccc32)c(OC)c1
[1]
  IC50: 10.9 µM (not active)

## O=C(NN1C(=O)c2ccccc2NC1c1ccco1)c1ccc([N+](=O)[O-])cc1 (centres undefined)
[1]
  IC50: 10.6 µM (not active)

## Cc1c(Cl)c(S(N)(=O)=O)cc2c1N=CNS2(=O)=O
Cytochrome P450 2C9
  AC50: inconclusive
Cytochrome P450 2D6
  AC50: 3.98 µM (inconclusive)

## Cc1cc(SC(C)C(=O)Nc2c(C)n(C)n(-c3ccccc3)c2=O)nc2ccccc12 (centres undefined)
Cytochrome P450 2C19; read-out: AC50
  AC50: 11.2 µM (inconclusive)
Cytochrome P450 2C9
  AC50: inconclusive

## CC(C)CN1CCCC2(CCN(C(=O)c3ccco3)CC2)C1
Cytochrome P450 2C9
  AC50: inconclusive
Cytochrome P450 3A4
  AC50: 31.6 µM (inconclusive)

## CCOC(=O)c1c(NC(=O)C2CC(Cl)=CCC2C(=O)O)sc2c1CCCCC2 (centres undefined)
[9]
  EC50: 6.68 µM (active)

## Cc1ccccc1C(=O)NC1CC2CCC(C1)N2Cc1ccccc1 (centres undefined)
[9]
  EC50: 0.188 µM (active)

## CCOC(=O)C(CSCC(=O)c1ccc(Cl)cc1Cl)NC(=O)OC(C)(C)C (centres undefined)
Protein skinhead-1
  IC50: > 100 µM (inactive)
[10]
  IC50: > 66 µM (inactive)
[11]
  IC50: > 66 µM (inactive)

## CN(C)CCCN1c2ccccc2CCc2ccc(Cl)cc21 [CLOMIPRAMINE]
Cytochrome P450 1A2
  AC50: 15.8 µM (active) and 5.01 µM (active) and 20 µM (inconclusive)
Cytochrome P450 2C19
  AC50: inactive
Cytochrome P450 2C9
  AC50: inactive

## Cc1c(C#N)c(=O)oc2ccc3ccccc3c12
Cytochrome P450 2C9
  AC50: inconclusive

## CN(Cc1ccccc1)C(=O)c1ccc([N+](=O)[O-])o1
[5]
  CC50: 19.4 µM (active)
cells
  IC50: 360 nM (active)
[8]
  CC50: > 40 µM (active)
